Test results taken from the supplement of paper PMC10307832.

Key:
Experiment in all cases: relative viability (nuclei count vs DMSO), 5 days (fraction); higher = more cells survive
IU1-47 + Tozasertib = compound: CC1=CC(=C(N1C2=CC=C(C=C2)Cl)C)C(=O)CN3CCCCC3 [IU1-47] + Cc1cc(Nc2cc(N3CCN(C)CC3)nc(Sc3ccc(NC(=O)C4CC4)cc3)n2)n[nH]1 [Tozasertib] (partner 0.1 µM)
Summary of the method: (§1)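 Lung cancer cell lines in 1536-well plates got either a single drug or a fixed anchor-drug dose together with five library-drug doses (not always all listed) in √10 steps, by pin tool, on the day after seeding. Nuclei were counted after 5 days, and relative viability is the treated-to-vehicle ratio of nuclei counts. Values are medians of duplicate plates.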

FG-4592 + Palbociclib = compound: Cc1nc(C(=O)NCC(=O)O)c(O)c2ccc(Oc3ccccc3)cc12 [FG-4592] + CC(=O)c1c(C)c2cnc(Nc3ccc(N4CCNCC4)cn3)nc2n(C2CCCC2)c1=O [Palbociclib] (partner 0.5 µM)
Summary of the method: as §1

FG-4592 + Lapatinib = compound: Cc1nc(C(=O)NCC(=O)O)c(O)c2ccc(Oc3ccccc3)cc12 [FG-4592] + CS(=O)(=O)CCNCc1ccc(-c2ccc3ncnc(Nc4ccc(OCc5cccc(F)c5)c(Cl)c4)c3c2)o1 [Lapatinib] (partner 2 µM)
Summary of the method: as §1

FG-4592 + Olaparib = compound: Cc1nc(C(=O)NCC(=O)O)c(O)c2ccc(Oc3ccccc3)cc12 [FG-4592] + O=C(c1cc(Cc2n[nH]c(=O)c3ccccc23)ccc1F)N1CCN(C(=O)C2CC2)CC1 [Olaparib] (partner 8 µM)
Summary of the method: as §1

UMC-11
relative viability (IU1-47 + Tozasertib; first compound 0.08 µM): 0.215 | relative viability (IU1-47 + Tozasertib; first compound 0.253 µM): 0.209 | relative viability (IU1-47 + Tozasertib; first compound 0.8 µM): 0.201 | relative viability (IU1-47 + Tozasertib; first compound 2.53 µM): 0.218 | relative viability (IU1-47 + Tozasertib; first compound 8 µM): 0.214 | relative viability (FG-4592 + Palbociclib; first compound 0.08 µM): 0.306 | relative viability (FG-4592 + Palbociclib; first compound 0.253 µM): 0.309 | relative viability (FG-4592 + Palbociclib; first compound 0.8 µM): 0.32 | relative viability (FG-4592 + Palbociclib; first compound 2.53 µM): 0.331 | relative viability (FG-4592 + Palbociclib; first compound 8 µM): 0.285 | relative viability (FG-4592 + Lapatinib; first compound 0.08 µM): 0.948 | relative viability (FG-4592 + Lapatinib; first compound 0.253 µM): 0.955 | relative viability (FG-4592 + Lapatinib; first compound 0.8 µM): 0.8 | relative viability (FG-4592 + Lapatinib; first compound 2.53 µM): 0.936 | relative viability (FG-4592 + Lapatinib; first compound 8 µM): 0.822 | relative viability (FG-4592 + Olaparib; first compound 0.08 µM): 0.286 | relative viability (FG-4592 + Olaparib; first compound 0.253 µM): 0.332 | relative viability (FG-4592 + Olaparib; first compound 0.8 µM): 0.357 | relative viability (FG-4592 + Olaparib; first compound 2.53 µM): 0.341 | relative viability (FG-4592 + Olaparib; first compound 8 µM): 0.348
